Like-named read-outs stand apart in the source and are kept apart here.
How the values were obtained:
[1] = test system: BP-induced DNA adducts (rat liver microsomes, st-DNA); assay: Microsomal BP-DNA adducts, 32P-postlabeling; format: biochemical; details: for BP-induced DNA adducts: BP 1 μM, rat liver microsomes, st-DNA
Method: st-DNA (300 μg/mL) was preincubated with 50 mM Tris-HCl (pH 7.5), 1 mM MgCl2, 2.5 mM glucose-6-phosphate, 1 U/mL G6PDH, 0.5 mM NADP+, and α-naphthoflavone-induced rat liver microsomal proteins (1 mg/mL) in 1 mL for 10 min, in the presence of vehicle alone and PC and EA at 20 and 40 μM. […] The incubation was continued for another 30 min at 37°C and then reaction was terminated by the addition of EDTA and centrifugation (9,000 g; 10 min). DNA was isolated from the supernatant by removal of RNA and proteins by digestions with RNases A and T1 and proteinase K and a series of extractions with phenol, phenol: Sevag (chloroform : isoamyl alcohol, 24 : 1), and Sevag, followed by precipitation of the DNA with ethanol. The DNA concentration was estimated spectrophotometrically.
DNA adducts were analyzed by ^32P-postlabeling as described earlier. Briefly, 10 μg of DNA was digested with micrococcal nuclease and spleen phosphodiesterase (MN/SPD). Before further treatment with nuclease P1 to enrich DNA adducts, an aliquot was removed for evaluation of normal nucleotide levels. DNA adducts and normal nucleotides were labelled with [γ-^32P]ATP and T4 polynucleotide kinase. Labelled adducts were separated by multidirectional polyethyleneimine (PEI)-cellulose TLC using the following solvents: D1, 1.0 M sodium phosphate, pH 6.0; D3, 4 M lithium formate/7 M urea, pH 3.5; D4, 4 M ammonium hydroxide/isopropanol (1 : 0.9); and D5, 1.7 M sodium phosphate, pH 6.0. Normal nucleotides were resolved in 180 mM sodium phosphate, pH 6.0, by one-directional PEI-cellulose TLC. DNA adducts and normal nucleotides were detected and quantified by Packard InstantImager.

[2] = test system: Salmonella typhimurium TA102; assay: Ames antimutagenicity assay (preincubation); details: for inhibition at 50 µM / inhibition at 100 µM / inhibition at 250 µM / inhibition at 500 µM: Salmonella enterica, TYPHIMURIUM;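 for all read-outs here: compound and mutagen preincubated 30 min at 37 °C before adding bacteria, His+ revertant colonies counted after 48 h at 37 °C, inhibition relative to mutagen-alone minus negative-control revertants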
Method: (§2) In the preincubation experiment, test compounds and mutagen, each having a volume of 0.1 mL of varying concentrations, were preincubated at 37°C for 30 min and then 0.1 mL of 1 × 10^7 CFU/mL density of the bacterial culture was added, followed by the addition of 2.5 mL of top agar at 45°C (containing 0.5% NaCl and 0.6% agar) supplemented with 0.5 mM histidine-biotin. […] The combined solutions were vortexed and poured onto minimal glucose plates (40% glucose solution and Vogel Bonner medium). The plates were incubated at 37°C for 48 h and the numbers of histidine-independent revertants colonies were scored.
(§3) Survival of the bacteria was routinely monitored for each experiment. Parallel controls were run with compounds alone at all concentrations to test the possible toxicity. The concentrations of the test samples for investigating the antimutagenicity were 50, 100, 200, and 500 μM. […] All the test samples and mutagens were dissolved in DMSO (final conc., 0.01%). […] Plates were set up in triplicate for each concentration and the entire experiment was repeated three times. Inhibition of mutagenicity was expressed as percentage decrease of reverse mutation and calculated as (1) Percent inhibition=[(a−b)/(a−c)]×100, where a = number of histidine revertants induced by mutagen, b = number of histidine revertants induced by mutagen in the presence of test compound, and c = number of revertants induced in negative control.

A549 cells = assay: MTT cell proliferation assay; format: cell-based; details: Homo sapiens; A549; 50 μg/mL; 48 h; read-out: inhibition of cells (antiproliferative activity, MTT)
Method: (§1) Inhibition of cell proliferation by PC and EA was measured with the MTT assay. Human lung cancer A549 and H1299 cells were obtained from ATCC (Manassas, VA, USA) and maintained in DMEM supplemented with 10% fetal calf serum (FCS), 1% penicillin/streptomycin. Cells were plated in 96-well culture plates (5 × 10^3 cells/well). After 24 h incubation, cells were treated with vehicle alone (0.1% DMSO) and PC and EA (12.5–200 μg/mL) extracts for 48 h. Then, the culture medium was replaced by 100 μL of fresh medium containing 0.5 mg/mL MTT, and the plates were incubated for 2 h at 37°C. The medium was then removed and was replaced by 200 μL of DMSO to solubilize the converted purple dye. The absorbance was measured with a spectrophotometer microplate reader at a wavelength of 570 nm.

H1299 cells = assay: MTT cell proliferation assay; format: cell-based; details: Homo sapiens, NCI-H1299; H1299; 50 μg/mL; 48 h; read-out: inhibition of cells (antiproliferative activity, MTT)
Method: as §1

[3] = test system: Salmonella typhimurium TA100; assay: Ames antimutagenicity assay (preincubation); details: for inhibition at 50 µM / inhibition at 100 µM / inhibition at 250 µM / inhibition at 500 µM: Salmonella enterica, TYPHIMURIUM;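 for all read-outs here: compound and mutagen preincubated together 30 min at 37°C before bacteria added, then plates incubated 48 h at 37°C, inhibition relative to mutagen-alone revertants after subtracting the negative control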
Method: as §2, §3

O=c1oc2c(O)c(O)cc3c(=O)oc4c(O)c(O)cc1c4c23 [Ellagic acid, ellagic acid]
BP-induced DNA adducts ([1]; 20 μM test compound): 58.6 ± 2.8 DNA adducts/10^8 nucleotides
BP-induced DNA adducts ([1]; 40 μM test compound): 50.9 ± 8.1 DNA adducts/10^8 nucleotides
inhibition of BP-induced DNA adducts ([1]; 40 μM, BP with rat liver microsomes, cofactors, DNA): 77%
inhibition at 50 µM ([2]; read-out: % inhibition of mutagenicity, TA 102, 50 μM + 2AF, S9): 17.5%
inhibition at 50 µM ([2]; read-out: % inhibition of mutagenicity, TA 102, 50 μM + BP, S9): 11.5%
inhibition at 50 µM ([2]; read-out: % inhibition of mutagenicity, TA 102, 50 μM + MMS, no S9): 18.5%
inhibition at 50 µM ([2]; read-out: % inhibition of mutagenicity, TA 102, 50 μM + NaN3, no S9): 21.9%
inhibition at 100 µM ([2]; read-out: % inhibition of mutagenicity, TA 102, 100 μM + 2AF, S9): 45.9%
inhibition at 100 µM ([2]; read-out: % inhibition of mutagenicity, TA 102, 100 μM + BP, S9): 23.6%
inhibition at 100 µM ([2]; read-out: % inhibition of mutagenicity, TA 102, 100 μM + MMS, no S9): 30.3%
inhibition at 100 µM ([2]; read-out: % inhibition of mutagenicity, TA 102, 100 μM + NaN3, no S9): 40.3%
inhibition at 250 µM ([2]; read-out: % inhibition of mutagenicity, TA 102, 250 μM + BP, S9): 46.6%
inhibition at 250 µM ([2]; read-out: % inhibition of mutagenicity, TA 102, 250 μM + MMS, no S9): 44.3%
inhibition at 250 µM ([2]; read-out: % inhibition of mutagenicity, TA 102, 250 μM + NaN3, no S9): 50.7%
inhibition at 500 µM ([2]; read-out: % inhibition of mutagenicity, TA 102, 500 μM + 2AF, S9): 89%
inhibition at 500 µM ([2]; read-out: % inhibition of mutagenicity, TA 102, 500 μM + BP, S9): 83.7%
inhibition at 500 µM ([2]; read-out: % inhibition of mutagenicity, TA 102, 500 μM + MMS, no S9): 72.4%
inhibition at 500 µM ([2]; read-out: % inhibition of mutagenicity, TA 102, 500 μM + NaN3, no S9): 62.3%
Number of His+ revertants colonies/plate ([2]; TA 102, 50 μM + 2AF, S9): 1276.0 ± 38.0 colonies/plate
Number of His+ revertants colonies/plate ([2]; TA 102, 50 μM + BP, S9): 653.0 ± 34.7 colonies/plate
Number of His+ revertants colonies/plate ([2]; TA 102, 50 μM + MMS, no S9): 1071.0 ± 16.7 colonies/plate
Number of His+ revertants colonies/plate ([2]; TA 102, 50 μM + NaN3, no S9): 345.3 ± 26.7 colonies/plate
Number of His+ revertants colonies/plate ([2]; TA 102, 100 μM + 2AF, S9): 924.0 ± 25.3 colonies/plate
Number of His+ revertants colonies/plate ([2]; TA 102, 100 μM + BP, S9): 595.0 ± 24.1 colonies/plate
Number of His+ revertants colonies/plate ([2]; TA 102, 100 μM + MMS, no S9): 956.0 ± 19.6 colonies/plate
Number of His+ revertants colonies/plate ([2]; TA 102, 100 μM + NaN3, no S9): 328.0 ± 28.2 colonies/plate
Number of His+ revertants colonies/plate ([2]; TA 102, 250 μM + BP, S9): 514.0 ± 21.4 colonies/plate
Number of His+ revertants colonies/plate ([2]; TA 102, 250 μM + MMS, no S9): 810.0 ± 19.1 colonies/plate
Number of His+ revertants colonies/plate ([2]; TA 102, 250 μM + NaN3, no S9): 308.0 ± 23.6 colonies/plate
Number of His+ revertants colonies/plate ([2]; TA 102, 500 μM + 2AF, S9): 431.0 ± 13.6 colonies/plate
Number of His+ revertants colonies/plate ([2]; TA 102, 500 μM + BP, S9): 366.0 ± 25.0 colonies/plate
Number of His+ revertants colonies/plate ([2]; TA 102, 500 μM + MMS, no S9): 506.0 ± 13.5 colonies/plate
Number of His+ revertants colonies/plate ([2]; TA 102, 500 μM + NaN3, no S9): 288.3 ± 19.2 colonies/plate
inhibition at 50 µg/mL (A549 cells): 39%
inhibition at 50 µg/mL (H1299 cells): 34%
inhibition at 50 µM ([3]; read-out: % inhibition of mutagenicity, TA 100, 50 μM + 2AF, S9): 22.5%
inhibition at 50 µM ([3]; read-out: % inhibition of mutagenicity, TA 100, 50 μM + BP, S9): 21.8%
inhibition at 50 µM ([3]; read-out: % inhibition of mutagenicity, TA 100, 50 μM + MMS, no S9): 8%
inhibition at 50 µM ([3]; read-out: % inhibition of mutagenicity, TA 100, 50 μM + NaN3, no S9): 11.4%
inhibition at 100 µM ([3]; read-out: % inhibition of mutagenicity, TA 100, 100 μM + 2AF, S9): 46.1%
inhibition at 100 µM ([3]; read-out: % inhibition of mutagenicity, TA 100, 100 μM + BP, S9): 42.8%
inhibition at 100 µM ([3]; read-out: % inhibition of mutagenicity, TA 100, 100 μM + MMS, no S9): 26.4%
inhibition at 100 µM ([3]; read-out: % inhibition of mutagenicity, TA 100, 100 μM + NaN3, no S9): 25.6%
inhibition at 250 µM ([3]; read-out: % inhibition of mutagenicity, TA 100, 250 μM + BP, S9): 70%
inhibition at 250 µM ([3]; read-out: % inhibition of mutagenicity, TA 100, 250 μM + MMS, no S9): 45.1%
inhibition at 250 µM ([3]; read-out: % inhibition of mutagenicity, TA 100, 250 μM + NaN3, no S9): 46.4%
inhibition at 500 µM ([3]; read-out: % inhibition of mutagenicity, TA 100, 500 μM + 2AF, S9): 83.8%
inhibition at 500 µM ([3]; read-out: % inhibition of mutagenicity, TA 100, 500 μM + BP, S9): 88.9%
inhibition at 500 µM ([3]; read-out: % inhibition of mutagenicity, TA 100, 500 μM + MMS, no S9): 65.3%
inhibition at 500 µM ([3]; read-out: % inhibition of mutagenicity, TA 100, 500 μM + NaN3, no S9): 65.9%
Number of His+ revertants colonies/plate ([3]; TA 100, 50 μM + 2AF, S9): 426.0 ± 18.6 colonies/plate
Number of His+ revertants colonies/plate ([3]; TA 100, 50 μM + BP, S9): 580.3 ± 25.6 colonies/plate
Number of His+ revertants colonies/plate ([3]; TA 100, 50 μM + MMS, no S9): 900.3 ± 16.3 colonies/plate
Number of His+ revertants colonies/plate ([3]; TA 100, 50 μM + NaN3, no S9): 340.7 ± 9.4 colonies/plate
Number of His+ revertants colonies/plate ([3]; TA 100, 100 μM + 2AF, S9): 350.0 ± 12.8 colonies/plate
Number of His+ revertants colonies/plate ([3]; TA 100, 100 μM + BP, S9): 472.3 ± 19.4 colonies/plate
Number of His+ revertants colonies/plate ([3]; TA 100, 100 μM + MMS, no S9): 754.0 ± 8.2 colonies/plate
Number of His+ revertants colonies/plate ([3]; TA 100, 100 μM + NaN3, no S9): 312.3 ± 8.4 colonies/plate
Number of His+ revertants colonies/plate ([3]; TA 100, 250 μM + BP, S9): 336.0 ± 17.6 colonies/plate
Number of His+ revertants colonies/plate ([3]; TA 100, 250 μM + MMS, no S9): 598.7 ± 14.2 colonies/plate
Number of His+ revertants colonies/plate ([3]; TA 100, 250 μM + NaN3, no S9): 266.0 ± 7.8 colonies/plate
Number of His+ revertants colonies/plate ([3]; TA 100, 500 μM + 2AF, S9): 240.7 ± 9.8 colonies/plate
Number of His+ revertants colonies/plate ([3]; TA 100, 500 μM + BP, S9): 245.7 ± 14.4 colonies/plate
Number of His+ revertants colonies/plate ([3]; TA 100, 500 μM + MMS, no S9): 420.3 ± 6.9 colonies/plate
Number of His+ revertants colonies/plate ([3]; TA 100, 500 μM + NaN3, no S9): 210.3 ± 12.4 colonies/plate

— paper PMC4052943 (BioMed Research International, 2014)
